Results: paper PMC5012908 (Acta biomaterialia, 2016)

Experiments:
[1] = Circular dichroism of β-peptide solutions; format: physicochemical; settings: 0.1 mM peptide, 20 °C, consistent with 14-helicity without aggregation
[2] = read-out: IC50 (antifungal); isotonic glucose phosphate buffer; cited from earlier work

Coumarin-linker-(ACHC-β^3hVal-β^3hLys)3 [β-peptide 1]
CD minimum in methanol [1]: 214 nm

magainin-2
IC50 [2]: 300 nM
